Results published in article PMC9080226 (RSC Advances, 2018).

Columns and labels:
COMT in DLS9 [1] = molecular target: T1, COMT in DLS9 (Canis lupus familiaris, UniProt Q60F99); assay: Kinetic analysis of 3-BTD methylation in dog liver S9; assay type: in vitro ADME, beagle dogs; conditions: formation of 3-BTMD in DLS9; Vmax/Km
T1 sequence (Q60F99 1-221): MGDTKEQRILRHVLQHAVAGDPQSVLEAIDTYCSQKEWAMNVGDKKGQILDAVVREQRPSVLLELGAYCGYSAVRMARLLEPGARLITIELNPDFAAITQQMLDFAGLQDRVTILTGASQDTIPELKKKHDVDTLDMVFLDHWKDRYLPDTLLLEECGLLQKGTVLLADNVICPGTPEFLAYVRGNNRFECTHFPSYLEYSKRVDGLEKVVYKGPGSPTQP

COMT in HLS9 = molecular target: T2, COMT in HLS9 (Homo sapiens, UniProt P21964); assay: Kinetic analysis of 3-BTD methylation in human liver S9; assay type: in vitro ADME, humans; conditions: formation of 3-BTMD in HLS9; Vmax/Km
T2 sequence (P21964 51-271 limits assumed): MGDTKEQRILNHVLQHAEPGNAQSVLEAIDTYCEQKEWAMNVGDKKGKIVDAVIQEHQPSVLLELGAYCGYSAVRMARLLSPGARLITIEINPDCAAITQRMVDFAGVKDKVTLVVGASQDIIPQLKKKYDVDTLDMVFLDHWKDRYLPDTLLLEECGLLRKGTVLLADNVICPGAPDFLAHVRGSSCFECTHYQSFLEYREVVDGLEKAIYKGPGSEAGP

COMT in RaLS9 [2] = molecular target: T3, COMT in RaLS9 (Oryctolagus cuniculus, UniProt A0A5F9DQ59); assay type: in vitro ADME, New Zealand rabbits; conditions: formation of 3-BTMD in RaLS9; Vmax/Km
T3 sequence (A0A5F9DQ59 1-268): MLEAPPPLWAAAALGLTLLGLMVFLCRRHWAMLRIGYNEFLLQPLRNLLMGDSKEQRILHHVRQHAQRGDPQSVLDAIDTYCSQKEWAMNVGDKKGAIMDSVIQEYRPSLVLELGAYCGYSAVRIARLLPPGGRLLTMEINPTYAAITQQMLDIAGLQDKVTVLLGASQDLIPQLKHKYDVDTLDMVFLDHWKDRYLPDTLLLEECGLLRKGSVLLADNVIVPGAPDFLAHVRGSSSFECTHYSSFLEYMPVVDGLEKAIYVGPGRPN

COMT in RLS9 = molecular target: T4, COMT in RLS9 (Rattus norvegicus, UniProt P22734); assay: Kinetic analysis of 3-BTD methylation in rat liver S9; assay type: in vitro ADME, Sprague-Dawley rats; conditions: formation of 3-BTMD in RLS9; Vmax/Km
T4 sequence (P22734 44-264 limits assumed): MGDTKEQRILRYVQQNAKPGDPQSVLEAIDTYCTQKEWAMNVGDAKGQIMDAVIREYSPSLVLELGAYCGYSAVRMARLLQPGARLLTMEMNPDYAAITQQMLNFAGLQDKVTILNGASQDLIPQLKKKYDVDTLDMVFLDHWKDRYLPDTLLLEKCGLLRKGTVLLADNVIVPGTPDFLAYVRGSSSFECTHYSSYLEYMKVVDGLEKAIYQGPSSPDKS

COMT in GpLS9 [3] = molecular target: T5, COMT in GpLS9 (Cavia porcellus, UniProt A0A286XRD6); assay: Kinetic analysis of 3-BTD methylation in guinea pig liver S9; assay type: in vitro ADME, Dunkin-Hartley guinea pigs; conditions: formation of 3-BTMD in GpLS9; Vmax/Km
T5 sequence (A0A286XRD6 1-270): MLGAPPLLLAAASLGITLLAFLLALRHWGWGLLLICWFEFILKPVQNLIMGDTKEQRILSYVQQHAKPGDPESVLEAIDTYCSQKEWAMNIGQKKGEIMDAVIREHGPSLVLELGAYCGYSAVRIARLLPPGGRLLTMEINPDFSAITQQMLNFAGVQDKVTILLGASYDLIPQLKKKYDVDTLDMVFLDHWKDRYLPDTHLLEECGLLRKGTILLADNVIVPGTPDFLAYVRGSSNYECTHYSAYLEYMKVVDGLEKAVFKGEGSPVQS

COMT in MLS9 [4] = molecular target: T6, COMT in MLS9 (Mus musculus, UniProt O88587); assay: Kinetic analysis of 3-BTD methylation in mouse liver S9; assay type: in vitro ADME, ICR/CD-1 mice; conditions: formation of 3-BTMD in MLS9; Vmax/Km
T6 sequence (O88587 44-265 limits assumed): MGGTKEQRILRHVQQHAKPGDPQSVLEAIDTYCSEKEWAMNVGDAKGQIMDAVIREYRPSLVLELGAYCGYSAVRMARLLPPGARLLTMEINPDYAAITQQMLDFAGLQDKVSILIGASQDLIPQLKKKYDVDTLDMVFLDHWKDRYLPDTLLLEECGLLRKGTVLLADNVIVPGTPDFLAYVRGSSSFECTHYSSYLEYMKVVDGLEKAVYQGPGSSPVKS

COMT in GpLS9 [5] = molecular target: T5, COMT in GpLS9; assay: Chemical inhibition assay of 3-BTD methylation in guinea pig liver S9; assay type: biochemical, Dunkin-Hartley guinea pigs
COMT in RaLS9 [6] = tested on: COMT in RaLS9
COMT in DLS9 [7] = molecular target: T1, COMT in DLS9; assay: Chemical inhibition assay of 3-BTD methylation in dog liver S9; assay type: biochemical, beagle dogs
[8] = tested on: mammalian COMT in liver S9; conditions: tolcapone 1000 nM, liver S9 from all the test species
COMT in CyLS9 = molecular target: T7, COMT in CyLS9 (Macaca fascicularis, UniProt A0A7N9CL08); assay: Chemical inhibition assay of 3-BTD methylation in cynomolgus monkey liver S9
T7 sequence (A0A7N9CL08 1-274): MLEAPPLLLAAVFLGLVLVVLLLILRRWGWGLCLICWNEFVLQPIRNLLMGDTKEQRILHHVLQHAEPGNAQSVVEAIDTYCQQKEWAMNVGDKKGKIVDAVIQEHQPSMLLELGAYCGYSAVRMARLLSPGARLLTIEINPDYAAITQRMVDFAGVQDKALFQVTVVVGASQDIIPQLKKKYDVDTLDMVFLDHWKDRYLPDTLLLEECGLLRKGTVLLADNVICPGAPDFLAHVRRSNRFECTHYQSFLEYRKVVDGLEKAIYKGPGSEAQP

COMT in RaLS9 [9] = molecular target: T3, COMT in RaLS9; assay: biochemical
COMT in MLS9 [10] = molecular target: T6, COMT in MLS9; assay: biochemical

| Clint (COMT in DLS9 [1]) [µL/min/mg] | Clint (COMT in HLS9) [µL/min/mg] | Clint (COMT in RaLS9 [2]) [µL/min/mg] | Clint (COMT in RLS9) [µL/min/mg] | Clint (COMT in GpLS9 [3]) [µL/min/mg] | Clint (COMT in MLS9 [4]) [µL/min/mg] | IC50 (COMT in GpLS9 [5]) [µM] | inhibitory potency (IC50) in animal liver S9 versus HLS9 (COMT in RaLS9 [6]) [fold] | IC50 (COMT in DLS9 [7]) [µM] | IC50 (COMT in CyLS9; CyLS9 0.2 mg ml^−1, 3-BTD (1 μM) 8-O-methylation as probe reaction, mean ± S.E.) [µM] | inhibitory potency (IC50) in animal liver S9 versus HLS9 (COMT in CyLS9; CyLS9 versus HLS9) [fold] | IC50 (COMT in RaLS9 [9]) [µM] | IC50 (COMT in MLS9 [10]) [µM] | Structure (SMILES) | inhibition of mammalian COMT-mediated 3-BTD methylation [8] |
| --- | --- | --- | --- | --- | --- | --- | --- | --- | --- | --- | --- | --- | --- | --- |
| 627 | 112 | 235 | 763 | 191 | 523 |  |  |  |  |  |  |  | O=c1oc2c(O)c(O)ccc2cc1-c1nc2ccccc2s1 [3-BTD, 3-(benzo[d]thiazol-2-yl)-7,8-dihydroxy-2H-chromen-2-one] |  |
|  |  |  |  |  |  | 0.108 ± 0.0071 | 6.9 | 0.0208 ± 0.0027 | 0.0187 ± 0.003 | 1.1 | 0.117 ± 0.0103 | 0.029 ± 0.0039 | Cc1ccc(C(=O)c2cc(O)c(O)c([N+](=O)[O-])c2)cc1 [tolcapone] | strongly inhibit |
